The values that follow come from patent publication US20250235460A1, “COMBINATION THERAPY USING GLUCOSE-DEPENDENT INSULINOTROPIC POLYPEPTIDE RECEPTOR ANTAGONIST COMPOUNDS AND GLP-1 RECEPTOR AGONIST COMPOUNDS” (Pfizer Inc., priority 2024, published 2025).

Structures can show the parent of a compound that is named as a salt.

The target of test [1] is human GLP-1R (Homo sapiens, UniProt P43220, L260F). As to the kind of experiment: CHO GLP-1R Clone C6 cAMP HTRF agonist assay (Assay 2, low receptor density). The conditions noted are these: for EC50: geometric mean; for Emax: CHO GLP-1R clone C6, relative to saturating GLP-1 (1 μM). The class given is cell-based. From the text: In Table 5 and Table 6, assay data are presented to two (2) significant figures as the geometric mean (EC50s) and arithmetic mean (Emax) based on the number of replicates listed (Number). A blank cell means there was no data for that Example or the Emax was not calculated.
Sequence of human GLP-1R (Homo sapiens, UniProt P43220, L260F) (P43220 24-463 L260F): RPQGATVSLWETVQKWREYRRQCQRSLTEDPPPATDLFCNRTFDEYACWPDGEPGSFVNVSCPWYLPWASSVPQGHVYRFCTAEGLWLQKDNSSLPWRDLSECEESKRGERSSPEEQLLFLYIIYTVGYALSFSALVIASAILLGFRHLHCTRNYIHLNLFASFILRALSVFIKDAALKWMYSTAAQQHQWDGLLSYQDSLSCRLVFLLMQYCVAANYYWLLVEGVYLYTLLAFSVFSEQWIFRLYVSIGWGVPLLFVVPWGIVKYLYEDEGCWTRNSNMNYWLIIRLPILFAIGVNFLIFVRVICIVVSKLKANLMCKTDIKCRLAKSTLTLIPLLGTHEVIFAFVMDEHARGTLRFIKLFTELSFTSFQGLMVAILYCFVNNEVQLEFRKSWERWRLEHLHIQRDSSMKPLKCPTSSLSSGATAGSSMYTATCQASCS

Test [2] concerns the target human GLP-1R (Homo sapiens, UniProt P43220, G168S). As to the kind of experiment: CHO GLP-1R Clone H6 cAMP HTRF agonist assay (Assay 1, high receptor density). Format: cell-based. The conditions noted are these: for EC50: geometric mean; for Emax: CHO GLP-1R clone H6, arithmetic mean, relative to saturating GLP-1 (1 μM), read-out: Assay 1 Emax (%). The method in brief: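 EC50 values are reported as geometric means and Emax as arithmetic means across the listed number of replicates, both given to two significant figures.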

[3] abbreviates: CHO GLP-1R clone, low receptor density, cAMP HTRF.

Sequence of human GLP-1R (Homo sapiens, UniProt P43220, G168S) (P43220 24-463 G168S): as the sequence (P43220 24-463 L260F) above, with G145S, F237L counted along it

Regarding `Cn1nncc1Cn1c(CN2CCC(c3cccc(OCc4ccc(Cl)cc4F)n3)CC2)nc2ccc(C(=O)O)cc21` [Compound 144B, 2-[(4-{6-[(4-chloro-2-fluorobenzyl)oxy]pyridin-2-yl}piperidin-1-yl)methyl]-1-[(1-methyl-1H-1,2,3-triazol-5-yl)methyl]-1H-benzimidazole-6-carboxylic acid], the half-maximal effective concentration (EC50) in test [1] (CHO GLP-1R clone C6, cAMP HTRF) was 94 nM; in test [2] (CHO GLP-1R clone H6, cAMP HTRF) it was 5.8 nM. The values for the maximal response (Emax) in test [1] (arithmetic mean) and in test [2] were 76% and 72%, respectively.

With `COCCn1c(CN2CCC(c3cccc(OCc4ccc(Cl)cc4F)n3)CC2)nc2ncc(C(=O)O)c(C)c21` [Compound 208B, 2-[(4-{6-[(4-chloro-2-fluorobenzyl)oxy]pyridin-2-yl}piperidin-1-yl)methyl]-1-(2-methoxyethyl)-7-methyl-1H-imidazo[4,5-b]pyridine-6-carboxylic acid], the EC50 in test [1] (CHO GLP-1R clone C6, cAMP HTRF) worked out at 41 nM; in test [2] (CHO GLP-1R clone H6, cAMP HTRF), 1.7 nM. Also, the Emax is 99% in test [1] (arithmetic mean) and 82% in test [2].

With `CCn1nncc1Cn1c(CN2CCC(c3cccc(OCc4ccc(C#N)cc4F)n3)CC2)nc2ccc(C(=O)O)cc21` [Compound 164B, 2-[(4-{6-[(4-cyano-2-fluorobenzyl)oxy]pyridin-2-yl}piperidin-1-yl)methyl]-1-[(1-ethyl-1H-1,2,3-triazol-5-yl)methyl]-1H-benzimidazole-6-carboxylic acid], the EC50 turned out to be 55 nM in test [1] (CHO GLP-1R clone C6, cAMP HTRF) and 3.2 nM in test [2] (CHO GLP-1R clone H6, cAMP HTRF). The molecule further yielded an Emax in test [1] (arithmetic mean) of 86%.

`N#Cc1ccc(COc2cccc(C3CCN(Cc4nc5ccc(C(=O)O)cc5n4CC4CCOC4)CC3)n2)c(F)c1` (centres unmarked) [Compound 363B, 2-[(4-{6-[(4-cyano-2-fluorobenzyl)oxy]pyridin-2-yl}piperidin-1-yl)methyl]-1-(tetrahydrofuran-3-ylmethyl)-1H-benzimidazole-6-carboxylic acid]: the Emax in test [1] (arithmetic mean) came to 71%; in test [2], 65%.

Take `O=C(O)c1ccc2nc(CN3CCC(c4cccc(OCc5ccc(Cl)cc5F)n4)CC3)n(Cc3ncco3)c2c1` [Compound 156B, 2-[(4-{6-[(4-chloro-2-fluorobenzyl)oxy]pyridin-2-yl}piperidin-1-yl)methyl]-1-(1,3-oxazol-2-ylmethyl)-1H-benzimidazole-6-carboxylic acid]: the EC50 worked out at 14 nM in test [1] (CHO GLP-1R clone C6, cAMP HTRF) and 0.96 nM in test [2] (CHO GLP-1R clone H6, cAMP HTRF). The Emax in test [1] (arithmetic mean) was found to be 95%; in test [2], 80%.

Take `Cn1cnnc1Cn1c(CN2CCC(c3cccc(OCc4ccc(C#N)cc4F)n3)CC2)nc2ccc(C(=O)O)cc21` [Compound 188B, 2-[(4-{6-[(4-cyano-2-fluorobenzyl)oxy]pyridin-2-yl}piperidin-1-yl)methyl]-1-[(4-methyl-4H-1,2,4-triazol-3-yl)methyl]-1H-benzimidazole-6-carboxylic acid]: the EC50 amounted to 38 nM in test [1] (CHO GLP-1R clone C6, cAMP HTRF) and 2.4 nM in test [2] (CHO GLP-1R clone H6, cAMP HTRF). The maximal response (Emax) in test [1] (arithmetic mean) was 83%; in test [2] it was 71%.

In the case of `CCOC(C)Cn1c(CN2CCC(c3cccc(OCc4ccc(Cl)cc4F)n3)CC2)nc2ccc(C(=O)O)cc21` (centres unmarked) [Compound 293B, 2-[(4-{6-[(4-chloro-2-fluorobenzyl)oxy]pyridin-2-yl}piperidin-1-yl)methyl]-1-(2-ethoxypropyl)-1H-benzimidazole-6-carboxylic acid], the EC50 in test [1] (CHO GLP-1R clone C6, cAMP HTRF) worked out at 590 nM; in test [2] (CHO GLP-1R clone H6, cAMP HTRF), 56 nM. In addition, the maximum response (Emax) in test [1] (arithmetic mean) amounted to 85%; in test [2], 81%.

With `O=C(O)c1ccc2nc(CN3CCC(c4cccc(OCc5ccc(Cl)cc5F)n4)CC3)n(Cc3nnc[nH]3)c2c1` [Compound 300B, 2-[(4-{6-[(4-chloro-2-fluorobenzyl)oxy]pyridin-2-yl}piperidin-1-yl)methyl]-1-(4H-1,2,4-triazol-3-ylmethyl)-1H-benzimidazole-6-carboxylic acid], the EC50 in test [1] (CHO GLP-1R clone C6, cAMP HTRF) came out at 1300 nM; in test [2] (CHO GLP-1R clone H6, cAMP HTRF), 120 nM. Further, the results for the maximum response (Emax) in test [1] (arithmetic mean) and in test [2] were 96% and 93%, respectively.

Turning to `N#Cc1ccc(COc2cccc(C3CCN(Cc4nc5ccc(C(=O)O)nc5n4C[C@@H]4CCO4)CC3)n2)c(F)c1` [Compound 114B, 2-[(4-{6-[(4-cyano-2-fluorobenzyl)oxy]pyridin-2-yl}piperidin-1-yl)methyl]-3-[(2S)-oxetan-2-ylmethyl]-3H-imidazo[4,5-b]pyridine-5-carboxylic acid], the EC50 in test [1] (CHO GLP-1R clone C6, cAMP HTRF) worked out at 120 nM; in test [2] (CHO GLP-1R clone H6, cAMP HTRF), 7.1 nM. Moreover, the maximal effect (Emax) in test [1] (arithmetic mean) came out at 85%; in test [2] it was 81%.

With `O=C(O)c1ccc2nc(CN3CCC(c4cccc(OCc5ccc(F)cc5F)n4)CC3)n(Cc3ncco3)c2c1` [Compound 149B, 2-[(4-{6-[(2,4-difluorobenzyl)oxy]pyridin-2-yl}piperidin-1-yl)methyl]-1-(1,3-oxazol-2-ylmethyl)-1H-benzimidazole-6-carboxylic acid], the EC50 was > 15000 nM in test [1] (CHO GLP-1R clone C6, cAMP HTRF) and 770 nM in test [2] (CHO GLP-1R clone H6, cAMP HTRF). The Emax came to 100% in test [1] (arithmetic mean) and 78% in test [2].

As to `C[C@H]1CN(c2cccc(OCc3ccc(Cl)cc3F)n2)CCN1Cc1nc2ccc(C(=O)O)nc2n1C[C@@H]1CCO1` [Compound 136B, 2-{[(2S)-4-{6-[(4-chloro-2-fluorobenzyl)oxy]pyridin-2-yl}-2-methylpiperazin-1-yl]methyl}-3-[(2S)-oxetan-2-ylmethyl]-3H-imidazo[4,5-b]pyridine-5-carboxylic acid], the EC50 in test [1] (CHO GLP-1R clone C6, cAMP HTRF) was 4100 nM; in test [2] (CHO GLP-1R clone H6, cAMP HTRF), 150 nM. The Emax in test [1] (arithmetic mean) is 110%; in test [2], 86%.

`CCn1cncc1Cn1c(CN2CCC(c3cccc4c3OC(C)(c3ccc(Cl)cc3F)O4)CC2)nc2ccc(C(=O)O)cc21.N` (single isomer, unassigned; ent-2) [Compound 22B, Ammonium 2-({4-[2-(4-chloro-2-fluorophenyl)-2-methyl-1,3-benzodioxol-4-yl]piperidin-1-yl}methyl)-1-[(1-ethyl-1H-imidazol-5-yl)methyl]-1H-benzimidazole-6-carboxylate, ENT-2]: the 50% effective concentration (EC50) in test [1] (setting [3]) came to 1000 nM; in test [2] (CHO GLP-1R clone, cAMP HTRF), 210 nM. Further, in test [1] (relative to saturating full agonist GLP-1 (1 μM), arithmetic mean), the “Assay 2 Emax” value is given as 87%.

For `Cc1ccn(CCn2c(CN3CCC(c4cccc(OCc5ccc(Cl)cc5F)n4)CC3)nc3ccc(C(=O)O)cc32)n1` [Compound 306B, 2-[(4-{6-[(4-chloro-2-fluorobenzyl)oxy]pyridin-2-yl}piperidin-1-yl)methyl]-1-[2-(3-methyl-1H-pyrazol-1-yl)ethyl]-1H-benzimidazole-6-carboxylic acid], the concentration for a half-maximal effect (EC50) turned out to be 3600 nM in test [1] (CHO GLP-1R clone C6, cAMP HTRF) and 190 nM in test [2] (CHO GLP-1R clone H6, cAMP HTRF). For the same molecule, the figures for the Emax in test [1] (arithmetic mean) and in test [2] were 93% and 80%, respectively.

Regarding `N#Cc1ccc(COc2cccc(C3CCN(Cc4nc5ccc(C(=O)O)cc5n4C[C@H]4CCO4)CC3)n2)c(F)c1` [Compound 111B, 2-[(4-{6-[(4-cyano-2-fluorobenzyl)oxy]pyridin-2-yl}piperidin-1-yl)methyl]-1-[(2R)-oxetan-2-ylmethyl]-1H-benzimidazole-6-carboxylic acid], the Emax in test [1] (arithmetic mean) amounted to 67%; in test [2], 75%.

With `N#Cc1ccc(COc2cccc(N3CCN(Cc4nc5ccc(C(=O)O)nc5n4C[C@@H]4CCO4)CC3)n2)c(F)c1` [Compound 123B, 2-[(4-{6-[(4-cyano-2-fluorobenzyl)oxy]pyridin-2-yl}piperazin-1-yl)methyl]-3-[(2S)-oxetan-2-ylmethyl]-3H-imidazo[4,5-b]pyridine-5-carboxylic acid], the EC50 in test [1] (CHO GLP-1R clone C6, cAMP HTRF) was determined as 45 nM; in test [2] (CHO GLP-1R clone H6, cAMP HTRF) it was 2.4 nM. In addition, the Emax stood at 95% in test [1] (arithmetic mean) and 87% in test [2].

On to `COCCn1c(C2CC23CCC(c2cccc4c2OC(C)(c2ccc(Cl)cc2F)O4)CC3)nc2ccc(C(=O)O)cc21` (centres unmarked) [Compound 29B, 2-{6-[2-(4-chloro-2-fluorophenyl)-2-methyl-1,3-benzodioxol-4-yl]-6-azaspiro[2.5]oct-1-yl}-1-(2-methoxyethyl)-1H-benzimidazole-6-carboxylic acid, DIAST-Z2, trifluoroacetate salt], for which the EC50 is > 20000 nM in test [1] (setting [3]) and > 20000 nM in test [2] (CHO GLP-1R clone, cAMP HTRF).

As to `Cn1nccc1Cn1c(CN2CCC(c3cccc(OCc4ccc(Cl)cc4F)n3)CC2)nc2ccc(C(=O)O)cc21` [Compound 296B, 2-[(4-{6-[(4-chloro-2-fluorobenzyl)oxy]pyridin-2-yl}piperidin-1-yl)methyl]-1-[(1-methyl-1H-pyrazol-5-yl)methyl]-1H-benzimidazole-6-carboxylic acid], the EC50 was determined as 1400 nM in test [1] (CHO GLP-1R clone C6, cAMP HTRF) and 96 nM in test [2] (CHO GLP-1R clone H6, cAMP HTRF). The Emax stood at 94% in test [1] (arithmetic mean) and 86% in test [2].

Turning to `CCn1cnnc1Cn1c(CN2CCC(c3cccc(OCc4ccc(Cl)cc4F)n3)CC2)nc2ccc(C(=O)O)cc21` [Compound 237B, 2-[(4-{6-[(4-chloro-2-fluorobenzyl)oxy]pyridin-2-yl}piperidin-1-yl)methyl]-1-[(4-ethyl-4H-1,2,4-triazol-3-yl)methyl]-1H-benzimidazole-6-carboxylic acid], the EC50 in test [1] (CHO GLP-1R clone C6, cAMP HTRF) turned out to be 39 nM; in test [2] (CHO GLP-1R clone H6, cAMP HTRF), 3.2 nM. Also, the Emax is 88% in test [1] (arithmetic mean) and 68% in test [2].

Turning to `O=C(O)c1ccc2nc(CN3CCC(c4cccc(OCc5ccc(Cl)cc5F)n4)CC3)n(C[C@@H]3CCO3)c2n1` [Compound 122B, 2-[(4-{6-[(4-chloro-2-fluorobenzyl)oxy]pyridin-2-yl}piperidin-1-yl)methyl]-3-[(2S)-oxetan-2-ylmethyl]-3H-imidazo[4,5-b]pyridine-5-carboxylic acid], the EC50 came out at 14 nM in test [1] (CHO GLP-1R clone C6, cAMP HTRF) and 1.5 nM in test [2] (CHO GLP-1R clone H6, cAMP HTRF). Besides, the maximal response (Emax) in test [1] (arithmetic mean) is 82%; in test [2], 86%.
